Laboratory results from the supplement of paper PMC10307832.

How the values were obtained:
Assay in all cases: relative viability (nuclei count vs DMSO), 5 days (fraction); higher = more cells survive
201T = tested on: 201T
Outline: (§1)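 Lung cancer cell lines were pin-tool dosed in 1536-well plates on the day after seeding, with either a lone drug or a fixed anchor-drug dose plus five library-drug doses (not always all listed) in √10 steps. Nuclei were counted on 4× images after 5 days. Relative viability is the ratio of treated-well to vehicle-well nuclei counts, with each value a median of duplicate plates.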

BEN = tested on: BEN
Outline: as §1

COR-L 105 = tested on: COR-L 105
Outline: as §1

EKVX = tested on: EKVX
Outline: as §1

EPLC-272H = tested on: EPLC-272H
Outline: as §1

H3255 = tested on: H3255
Outline: as §1

HCC-44 = tested on: HCC-44
Outline: as §1

HCC-827 = tested on: HCC-827
Outline: as §1

HOP-62 = tested on: HOP-62
Outline: as §1

LCLC-97TM1 = tested on: LCLC-97TM1
Outline: as §1

LOU-NH91 = tested on: LOU-NH91
Outline: as §1

LU99A = tested on: LU99A
Outline: as §1

NCI-H1395 = tested on: NCI-H1395
Outline: as §1

NCI-H1437 = tested on: NCI-H1437
Outline: as §1

NCI-H1666 = tested on: NCI-H1666
Outline: as §1

NCI-H1975 = tested on: NCI-H1975
Outline: as §1

NCI-H2085 = tested on: NCI-H2085
Outline: as §1

NCI-H2087 = tested on: NCI-H2087
Outline: as §1

NCI-H358 = tested on: NCI-H358
Outline: as §1

NCI-H647 = tested on: NCI-H647
Outline: as §1

PC-3 [JPC-3] = tested on: PC-3 [JPC-3]
Outline: as §1

SW 1573 = tested on: SW 1573
Outline: as §1

Oc1nc(-c2ccc(C(F)(F)F)cc2)nc2c1CSCC2 [XAV939] + CS(=O)(=O)CCNCc1ccc(-c2ccc3ncnc(Nc4ccc(OCc5cccc(F)c5)c(Cl)c4)c3c2)o1 [Lapatinib] (partner 2 µM)
relative viability (201T; first compound 0.08 µM): 1.08 | relative viability (201T; first compound 0.253 µM): 0.866 | relative viability (201T; first compound 0.8 µM): 0.948 | relative viability (201T; first compound 2.53 µM): 0.896 | relative viability (BEN; first compound 0.08 µM): 0.656 | relative viability (BEN; first compound 0.253 µM): 0.547 | relative viability (BEN; first compound 0.8 µM): 0.584 | relative viability (BEN; first compound 2.53 µM): 0.435 | relative viability (COR-L 105; first compound 0.08 µM): 0.426 | relative viability (COR-L 105; first compound 0.253 µM): 0.347 | relative viability (COR-L 105; first compound 0.8 µM): 0.37 | relative viability (COR-L 105; first compound 2.53 µM): 0.301 | relative viability (EKVX; first compound 0.08 µM): 0.193 | relative viability (EKVX; first compound 0.253 µM): 0.181 | relative viability (EKVX; first compound 0.8 µM): 0.162 | relative viability (EKVX; first compound 2.53 µM): 0.125 | relative viability (EPLC-272H; first compound 0.08 µM): 1.06 | relative viability (EPLC-272H; first compound 0.253 µM): 0.893 | relative viability (EPLC-272H; first compound 0.8 µM): 1 | relative viability (EPLC-272H; first compound 2.53 µM): 0.864 | relative viability (H3255; first compound 0.08 µM): 0.19 | relative viability (H3255; first compound 0.253 µM): 0.238 | relative viability (H3255; first compound 0.8 µM): 0.233 | relative viability (H3255; first compound 2.53 µM): 0.186 | relative viability (HCC-44; first compound 0.08 µM): 1.01 | relative viability (HCC-44; first compound 0.253 µM): 0.816 | relative viability (HCC-44; first compound 0.8 µM): 0.955 | relative viability (HCC-44; first compound 2.53 µM): 0.928 | relative viability (HCC-827; first compound 0.08 µM): 0.194 | relative viability (HCC-827; first compound 0.253 µM): 0.178 | relative viability (HCC-827; first compound 0.8 µM): 0.238 | relative viability (HCC-827; first compound 2.53 µM): 0.187 | relative viability (HOP-62; first compound 0.08 µM): 1.1 | relative viability (HOP-62; first compound 0.253 µM): 0.963 | relative viability (HOP-62; first compound 0.8 µM): 0.918 | relative viability (HOP-62; first compound 2.53 µM): 0.735 | relative viability (LCLC-97TM1; first compound 0.08 µM): 1.11 | relative viability (LCLC-97TM1; first compound 0.253 µM): 0.959 | relative viability (LCLC-97TM1; first compound 0.8 µM): 0.668 | relative viability (LCLC-97TM1; first compound 2.53 µM): 0.81 | relative viability (LOU-NH91; first compound 0.08 µM): 0.73 | relative viability (LOU-NH91; first compound 0.253 µM): 0.695 | relative viability (LOU-NH91; first compound 0.8 µM): 0.696 | relative viability (LOU-NH91; first compound 2.53 µM): 0.628 | relative viability (LU99A; first compound 0.08 µM): 0.964 | relative viability (LU99A; first compound 0.253 µM): 0.851 | relative viability (LU99A; first compound 0.8 µM): 0.995 | relative viability (LU99A; first compound 2.53 µM): 0.939 | relative viability (NCI-H1395; first compound 0.08 µM): 0.976 | relative viability (NCI-H1395; first compound 0.253 µM): 0.919 | relative viability (NCI-H1395; first compound 0.8 µM): 0.985 | relative viability (NCI-H1395; first compound 2.53 µM): 1.01 | relative viability (NCI-H1437; first compound 0.08 µM): 0.938 | relative viability (NCI-H1437; first compound 0.253 µM): 0.709 | relative viability (NCI-H1437; first compound 0.8 µM): 0.772 | relative viability (NCI-H1437; first compound 2.53 µM): 0.639 | relative viability (NCI-H1666; first compound 0.08 µM): 0.571 | relative viability (NCI-H1666; first compound 0.253 µM): 0.415 | relative viability (NCI-H1666; first compound 0.8 µM): 0.442 | relative viability (NCI-H1666; first compound 2.53 µM): 0.353 | relative viability (NCI-H1975; first compound 0.08 µM): 0.733 | relative viability (NCI-H1975; first compound 0.253 µM): 0.655 | relative viability (NCI-H1975; first compound 0.8 µM): 0.753 | relative viability (NCI-H1975; first compound 2.53 µM): 0.646 | relative viability (NCI-H2085; first compound 0.08 µM): 0.692 | relative viability (NCI-H2085; first compound 0.253 µM): 0.699 | relative viability (NCI-H2085; first compound 0.8 µM): 0.743 | relative viability (NCI-H2085; first compound 2.53 µM): 0.649 | relative viability (NCI-H2087; first compound 0.08 µM): 1.12 | relative viability (NCI-H2087; first compound 0.253 µM): 1.06 | relative viability (NCI-H2087; first compound 0.8 µM): 1.08 | relative viability (NCI-H2087; first compound 2.53 µM): 0.89 | relative viability (NCI-H358; first compound 0.08 µM): 0.502 | relative viability (NCI-H358; first compound 0.253 µM): 0.469 | relative viability (NCI-H358; first compound 0.8 µM): 0.494 | relative viability (NCI-H358; first compound 2.53 µM): 0.434 | relative viability (NCI-H647; first compound 0.08 µM): 0.91 | relative viability (NCI-H647; first compound 0.253 µM): 0.854 | relative viability (NCI-H647; first compound 0.8 µM): 0.987 | relative viability (NCI-H647; first compound 2.53 µM): 0.921 | relative viability (PC-3 [JPC-3]; first compound 0.08 µM): 0.454 | relative viability (PC-3 [JPC-3]; first compound 0.253 µM): 0.417 | relative viability (PC-3 [JPC-3]; first compound 0.8 µM): 0.435 | relative viability (PC-3 [JPC-3]; first compound 2.53 µM): 0.443 | relative viability (SW 1573; first compound 0.08 µM): 1.11 | relative viability (SW 1573; first compound 0.253 µM): 0.908 | relative viability (SW 1573; first compound 0.8 µM): 1.07 | relative viability (SW 1573; first compound 2.53 µM): 0.983
